Entries after “also recorded” stand apart in the source; their conditions may differ.
Legend:
[1] = Pharmacokinetics in subjects with moderate renal impairment vs matched controls
Description: (§1) Data are GMRs and 90% CIs. Reference used are the matched healthy subjects for renal and hepatic impairment studies, and extensive or ultra-extensive CYP2D6 metabolizers.

[2] = Food effect on pharmacokinetics of the subject combination; type: in vivo, human; settings: subject combination administered with food
[3] = Pharmacokinetics in CYP2D6 poor metabolizers vs extensive metabolizers
Description: Approximately 7 to 10% of Caucasians and 3 to 8% of African Americans lack the capacity to metabolize CYP2D6 substrates and are classified as poor metabolizers.
as §1

[4] = Co-administration of paroxetine (strong CYP2D6 inhibitor) and the subject combination
Description: Co-administration of the SSRI paroxetine and the subject combination was studied in 29 healthy volunteers.

plasma protein = test: Plasma protein binding
[5] = Pharmacokinetics after administration of the subject combination (steady state); settings: human, in vivo; for half-life: mean elimination half-life
[6] = 7 subjects with moderate renal impairment (GFR 30-60 mL/min) vs 6 matched controls with normal renal function
[7] = patients having moderate renal impairment
[8] = 3 poor metabolizers compared to extensive metabolizers
[9] = 20 mg paroxetine concomitantly with tablet twice daily vs tablet twice daily without paroxetine

## CC(NC(C)(C)C)C(=O)c1cccc(Cl)c1 (racemic) [bupropion]
[1]; human, in vivo
  concentrations compared with patients with healthy renal function: higher
  increase in AUC0-2: 1.80 fold
  increase of exposure: approximately 2 fold
  reduction of clearance: 50%

## COc1ccc2c(c1)[C@]13CCCC[C@@H]1[C@H](C2)N(C)CC3 [dextromethorphan]
[2]
  AUC0-2 decrease with food: 14%
  Cmax change with food: unchanged
[1]; [6]
  increase of exposure: approximately 2 fold
  reduction of clearance: 50%
[1]; [7]
  concentrations compared with patients with healthy renal function: higher
  increase in AUC0-2: 2.21 fold
[3]; [8]
  increase in AUC0-12: ~3.4 fold
  increase in Cmax: ~3 fold
[3]; steady state, subject combination
  plasma concentrations in CYP2D6 poor metabolizers compared with non-poor metabolizers: increases; also recorded: generally higher
[4]; [9]
  increase in AUC0-2: 2.69 fold
  increase in Cmax: 2.38 fold
[4]; 29 healthy volunteers, paroxetine co-administered with the subject combination
  change of overall exposure by paroxetine: 2.5 fold
[4]; concomitant use of the subject combination with a strong CYP2D6 inhibitor
  plasma concentrations with concomitant strong CYP2D6 inhibitor: increases
Plasma protein
  fraction unbound: 0.3 to 0.4
[5]
  Tmax: ~3 h
[5]; following 8 days of administration of the subject combination in extensive metabolizers
  half-life: ~22 h
[5]; subject combination
  half-life: 22 h

Source: patent publication US11839612B1, “Compounds and combinations thereof for treating neurological and psychiatric conditions” (priority 2022, dated 2023)
